Legend:
Type in all cases: functional
Mus musculus [1] = organism: Mus musculus; test: Inhibitory activity against LPS-induced NO production in mouse peritoneal macrophages was evaluated
Mus musculus [2] = organism: Mus musculus; test: Inhibitory activity from the roots of Angelica furcijuga on LPS-induced NO production in mouse peritoneal macrophages was evaluated at 100 uM
Rattus norvegicus [3] = organism: Rattus norvegicus; test: Inhibitory activity against D-GalN-induced cytotoxicity in rat hepatocytes; conditions: Hepatocyte
Rattus norvegicus [4] = organism: Rattus norvegicus; test: Inhibitory activity against D-GalN-induced cytotoxicity in rat hepatocytes at 100 uM; conditions: Hepatocyte
Mus musculus [5] = organism: Mus musculus; test: Inhibitory activity against LPS-induced NO production in mouse peritoneal macrophages was evaluated at 100 uM

SMILES | IC50 (Mus musculus [1]) [µM] | inhibition at 100 µM (Mus musculus [2]) [%] | IC50 (Rattus norvegicus [3]) [µM] | inhibition at 100 µM (Rattus norvegicus [4]) [%] | inhibition at 100 µM (Mus musculus [5]) [%] | Inhibition (Mus musculus [1]) [%]
CC(C)(O)C1Cc2cc(CCC(=O)O)c(O[C@@H]3O[C@H](CO)[C@@H](O)[C@H](O)[C@H]3O)cc2O1 (stereo partly drawn) | > 100 | 32 | > 100 | 0.6 |  | 
CC(C)(O)[C@H](O)Cc1cc2ccc(=O)oc2cc1O[C@@H]1O[C@H](CO)[C@@H](O)[C@H](O)[C@H]1O | > 100 | 49 | > 100 | 5.8 |  | 
CC1(C)Oc2ccc3ccc(=O)oc3c2[C@H](O)[C@H]1O | > 100 |  | > 100 | 1.5 | 36 | 
C=C[C@@H](O)C#CC#CC/C=C\CCCCCCC | 4.8 |  | > 100 | -0.6 |  | 
C=C[C@@H](O)C#CC#C[C@@H](O)/C=C\CCCCCCC [FALCARINDIOL] | 4.4 |  | > 100 | -33 |  | 
COc1c2ccoc2cc2oc(=O)ccc12 [BERGAPTEN] | > 100 | 49 | > 100 | 23 |  | 
CC1(C)Oc2ccc3ccc(=O)oc3c2[C@@H](O)[C@H]1O | 91 |  | > 100 | 6.5 |  | 
O=c1ccc2ccc(O[C@@H]3O[C@H](COC4OC[C@](O)(CO)[C@H]4O)[C@@H](O)[C@H](O)[C@H]3O)cc2o1 (stereo partly drawn) | > 100 | 36 | > 100 | -2.1 |  | 
CC1(C)Oc2ccc3ccc(=O)oc3c2C[C@H]1O[C@@H]1O[C@H](CO)[C@@H](O)[C@H](O)[C@H]1O | > 100 | 21 | > 100 | 1.4 |  | 
COc1cc(C(O)C(CO)Oc2ccc(/C=C/CO[C@@H]3O[C@H](CO)[C@@H](O)[C@H](O)[C@H]3O)cc2OC)ccc1O (stereo partly drawn) | > 100 |  | > 100 | -0.2 |  | -26

Further molecules by falling IC50 (Mus musculus [1]), results first:

IC50 (Mus musculus [1]) [µM] | SMILES | inhibition at 100 µM (Mus musculus [2]) [%] | IC50 (Rattus norvegicus [3]) [µM] | inhibition at 100 µM (Rattus norvegicus [4]) [%] | inhibition at 100 µM (Mus musculus [5]) [%] | Inhibition (Mus musculus [1]) [%]
53 | CC(=O)O[C@@H]1c2c(ccc3ccc(=O)oc23)OC(C)(C)[C@@H]1OC(=O)C1(C)OC1C (stereo partly drawn) |  | 29 |  |  | 
20 | C/C=C(\C)C(=O)O[C@@H]1c2c(ccc3ccc(=O)oc23)OC(C)(C)[C@@H]1OC(C)=O [PTERYXIN] |  | > 100 | 4.4 |  | 
11 | CC(=O)O[C@@H]1[C@H](OC(=O)CC(C)C)c2c(ccc3ccc(=O)oc23)OC1(C)C [SUKSDORFIN] |  | > 100 | -3.4 |  | 
8.8 | C/C=C(\C)C(=O)O[C@@H]1[C@H](OC(=O)C(C)C)c2c(ccc3ccc(=O)oc23)OC1(C)C |  | > 100 | 10 |  | 
8.8 | C/C=C(\C)C(=O)O[C@@H]1[C@H](OC(C)=O)c2c(ccc3ccc(=O)oc23)OC1(C)C |  | > 100 | 13 |  | 
8.2 | CCC(C)C(=O)O[C@@H]1c2c(ccc3ccc(=O)oc23)OC(C)(C)[C@@H]1OC(C)=O (stereo partly drawn) |  | > 100 | -2.5 |  | 
5.1 | C/C=C(\C)C(=O)O[C@@H]1[C@H](OC(=O)C(C)CC)c2c(ccc3ccc(=O)oc23)OC1(C)C (stereo partly drawn) |  | > 100 | -0.5 |  | 
4.2 | CC(=O)O[C@@H]1[C@H](OC(=O)C(C)C)c2c(ccc3ccc(=O)oc23)OC1(C)C [SERAVSHANIN] |  | > 100 | -2.2 |  | 
3.4 | C/C=C(\C)C(=O)O[C@@H]1c2c(ccc3ccc(=O)oc23)OC(C)(C)[C@@H]1OC(=O)/C(C)=C/C |  | > 100 | 2.8 |  | 
